We go through 63 molecules from a melting point compilation (Tetko et al.; mined from patent text by program, amines drawn as free bases though some values may be those of a salt).

Broadly, the melting point is the temperature, or range, at which the solid turns liquid.

`C=CCCOc1ccc(C[C@H](NC(=O)OC(C)(C)C)C(=O)O)cc1` returned a melting point of 148 to 150 °C.
For `COc1cc(C)c2c(c1O)CC(C)(c1ccccc1)C2=O` (stereo not drawn) the value was 136 to 139 °C; for `CCCC(=O)NC1=CC(=O)c2ccc(C=O)nc2C1=O`, 208 to 210 °C; for `COC(=O)c1ccc(CN(C(=O)OC(C)(C)C)c2ccc(C3CCCCC3)cc2)cc1`, 99.5 to 101 °C.
With `COc1ccc(C(=Cc2c(Cl)cncc2Cl)c2ccccc2)cc1OC1CCCC1` the figure was 138 to 140 °C; with `CNC(=O)N(C)C(=O)Nc1ccccn1`, 112 to 115 °C.
Regarding `COc1ccc(C2CCN(C(=O)/C=C/c3ccccc3)CC2)cc1OC1CCCC1`, the melting point is 93 to 95 °C.
`Cc1oc(COc2ccc(/C=C/C=O)cc2)nc1-c1ccccc1`: the melting point was 144 to 146 °C.
For `CSc1c(Cl)c(-c2cc(SC(C)C(=O)O)c(Cl)cc2Cl)nn1C` (stereo not drawn) the value was 180 °C.
For `CC(C)(C)COC(=O)C#CC1C(C(=O)OC(C#N)c2cccc(Oc3ccccc3)c2)C1(C)C` (stereo not drawn) the value was 67 °C; for `COc1cc2cc3c(Nc4ccc(Sc5nccn5C)c(Cl)c4)c(C#N)cnc3cc2cc1OCCCl`, 275 to 280 °C; for `CCCN(CCC)C(=O)Cc1ccc(O)c([N+](=O)[O-])c1`, 55 to 57 °C.
Regarding `COc1cc2c(cc1Nc1ncc(Cl)c(Nc3ccc(C(N)=O)cc3OC)n1)CCN(CCS(C)(=O)=O)CC2`, the melting point was 207 to 217 °C.
`Cc1nnc(-c2cccc(I)c2)s1` returned a melting point of 86 to 89 °C.
In the case of `CCCc1c(OCCCSc2ccc(C(=O)CCC(=O)O)c(F)c2)ccc(C(C)=O)c1O`, the melting point was 149 to 150 °C.
For the molecule `CC(C)(C)OC(=O)NC1CCN(Cc2ccccc2)C1` (stereo not drawn), the melting point was in the range of 114 to 115 °C.
With `O=C(OCc1ccccc1)c1ccc(OC(=O)c2ccc(O)cc2)cc1` the figure was 137 to 138 °C.
With `Nc1ccc(Oc2ccc(C3(c4ccc(Oc5ccc(N)cc5)cc4)CCC(c4ccccc4)CC3)cc2)cc1` the figure was 90.7 to 92.2 °C; with `CC(C)(C)C(Cc1ccc(Br)cc1)C(=O)n1ccnc1` (stereo not drawn), 101 to 102 °C; with `CCCCCCCCCCCCCCCCCCOc1cc(C(=O)OC)cc(N(CC(=O)O)CC(=O)O)c1`, 119 to 123 °C.
For `Nc1cc(NC(=O)c2ccc(Cl)c(Cl)c2)ccc1F` the value was 151 to 153 °C; for `COC1=C(OC)C(=O)c2c(Cl)cccc2C1=O`, 120 to 121 °C; for `Cn1nc2c(-c3ccc(Cl)cc3Cl)cccc2c1C1=NCCO1`, 162 to 167 °C.
Take `CCCOc1ccccc1-c1nc2c(CCCc3ccccc3)cccc2c(=O)[nH]1`: the melting point was found to be 89 °C.
`CCc1c(-c2ccc(OC)cc2)c2c(C(=O)O)c(C(=O)O)c3cc(OC)cc1n32` displayed a melting point of 209 to 211 °C.
Regarding `OCC1OC(n2cnc3c(OCC4CC4)ncnc32)CC1F` (stereo not drawn), the melting point is 100 °C.
With `Cc1cnc(N2CCC(c3ccc(N)cc3)CC2)n1C` the figure was 219 to 220 °C; with `COc1cc(OC)c(-c2cc3ccccc3n2C)cc1C=CC(=O)c1ccc(S(=O)(=O)NCc2cccnc2)cc1`, 202 to 203 °C; with `Cc1ccc(-c2c(C(=O)NCc3ccccc3)n(CC[C@@H](C)CO)c(=O)c3ncccc23)cc1`, 226 to 227 °C.
Molecule `CCc1nc2c(N)nc3ccccc3c2n1CCCC#Cc1cccc(C(F)(F)F)c1` came in with a melting point of 178 to 181 °C.
For `OC1=C(c2ccccc2)CC(O)(Cl)C=C1` (stereo not drawn) the value was 110 to 111 °C; for `CC(C)Oc1cc(NC(=O)CC(CCCl)C(F)(F)F)c(F)cc1Cl` (stereo not drawn), 57 to 63 °C; for `CC1(CCC(=O)O)CCCc2c1[nH]c1ccccc21` (stereo not drawn), 204 to 206 °C.
For `CCCCCCCCCCCCCCCCCCCCCCCCCCCCOC(=O)c1cccnc1`, the melting point is 65 to 70 °C.
With `CCCCCC1CCC(CCC2OCC(CCC)CO2)CC1` (stereo not drawn) the figure was 44 °C; with `CCOc1ccc(C2=NN(C(=O)c3cccc([N+](=O)[O-])c3)CCC2)cc1OCC`, 119 to 120 °C.
With `COc1ccc2c(Cc3c(Cl)cncc3Cl)nnc(CN3CCOCC3)c2c1` the figure was 203 to 206 °C.
For `Cc1ccc2c(c1)N(C1CC1)CNS2(=O)=O` the value was 157 to 158 °C.
As to `CN1CCN(C2=Nc3ccc(Cl)cc3S(=O)(=O)N2)CC1`, the melting point was over 300 °C.
With `COc1ccc2c(c1)c(Cc1cc(=O)n(-c3cc(Cl)cc(Cl)c3)[nH]1)c(C)n2C(=O)c1ccc(Cl)cc1` the figure was 104 to 105 °C; with `O=C(CN1C(=O)C2(COc3cc4c(cc32)CCO4)c2cc(Cl)ccc21)Nc1ccccc1F` (stereo not drawn), 229 to 230 °C.
As to `C=CC12CCc3cc(O)ccc3C1CCC1(C)C(=O)CCC12` (stereo not drawn), the melting point lay in the range of 239 to 242 °C.
As to `O=C(c1ccccc1)c1ccc2c([N+](=O)[O-])c(O)c(O)cc2c1`, the melting point was in the range of 196 to 205 °C.
With `Cc1ccc(-c2ccc3c(c2)C=C(C(=O)NC2CCN(C(=O)OC(C)(C)C)CC2)CCO3)cc1` the figure was 205 to 208 °C.
For `CCCCC1=C(C(=O)OCC)C(c2ccccc2Cl)c2c[nH]nc2N1` (stereo not drawn) the value was 209 °C; for `COc1ccc(OC)c(C=CCN2CCc3nc(N)sc3CC2)c1`, 112 to 115 °C.
For `Cc1ccc2c(c1)OC(C(=O)O)Oc1ccccc1C2` (stereo not drawn) the value was 149 to 152 °C; for `COC(=O)C1=C(C)NC(C)=C(P(=O)(OC)OC)C1c1cccc([N+](=O)[O-])c1` (stereo not drawn), 221 to 223 °C; for `O=C(O)C(CBr)(CBr)COCC(CBr)(CBr)C(=O)O`, 189 to 193 °C.
Molecule `O=C1c2ccccc2C(=O)N1c1ccc2ccc(F)nc2n1` gave a melting point of 245 °C.
For `O=C(Nc1ccccc1)c1ccc(-c2n[nH]c3c2Cc2ccccc2-3)cc1` the value was 186 to 190 °C; for `CC12CCC(=O)C=C1CCC1C2CCC2(C)C(n3ccnn3)=CCC12` (stereo not drawn), 118 to 120 °C; for `O=C(c1ccccc1)c1c(-c2ccccc2)sc2cc(O)ccc12`, 221 to 222 °C.
Molecule `CCn1c(=O)ccc2cnc(Nc3cccc(F)c3)nc21` gave a melting point of 210 to 212 °C.
For `O=CC(O)C(O)C(CO)OC1OC(CO)C(O)C(O)C1O` (stereo not drawn) the value was 171 to 176 °C; for `COCc1cc([N+](=O)[O-])c(Cl)cc1C#N`, 57 to 59 °C.
With `CS(=O)(=O)c1ccc(S(=O)(=O)N2CCn3c(c(C(N)=O)c(Cl)c3-c3ccccc3)C2)cc1` the figure was 258 to 259 °C.
With `CCC1c2cccn2-c2ccc(F)cc2N1C(=O)c1ccc(OC)cc1` (stereo not drawn) the figure was 39 to 42 °C.
In the case of `NC(N)=NC(=O)c1ccc2c(c1)S(=O)(=O)CC2O` (stereo not drawn), the melting point lay in the range of 240 to 241 °C.
With `CC(O)C1CCC2C3C=CC4=CC(=O)C5OC5C4(C)C3CCC12C` (stereo not drawn) the figure was 206 to 207 °C.
For `CN(C)Cc1ccc(Cc2cnc(N[N+](=O)[O-])[nH]c2=O)cc1` the value was 214 to 217 °C; for `CC(=O)NOCc1nc2c(N)nc3c(c2n1CC(C)C)CCCC3`, 187 to 188 °C.
As to `CSc1nn2c(N3CCN(C)CC3)cc(C)nc2c1S(=O)(=O)c1ccccc1`, the melting point fell in the range of 209 to 210 °C.
